In patent US11078198B2 (BRISTOL-MYERS SQUIBB COMPANY, priority 2017, dated 2021) one finds EC50 data, which are given here for 18 molecules.

This test addresses T1, human FXR (Homo sapiens, UniProt Q96RI1).
T1 construct: expressed in transfected cells; host or cells: HEK293 cells stably carrying a 5xGal4-response-element firefly luciferase reporter, transiently transfected with pcDNA3.1-Gal4-FXR
T1 sequence (Q96RI1 262-486 limits assumed): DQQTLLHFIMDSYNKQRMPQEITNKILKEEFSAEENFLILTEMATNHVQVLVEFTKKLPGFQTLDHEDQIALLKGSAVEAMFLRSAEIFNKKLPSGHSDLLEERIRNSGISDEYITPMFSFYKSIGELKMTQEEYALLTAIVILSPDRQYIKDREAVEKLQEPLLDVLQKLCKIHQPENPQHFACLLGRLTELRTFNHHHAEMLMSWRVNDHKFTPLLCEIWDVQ
Description: transient human FXR/Gal4-luciferase reporter assay. Type of test: cell-based. Conditions: Gal4-hFXR transfected HEK293 reporter cells; relative to 8 μM GW-4064. The method in brief:
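HEK293 cells stably carrying a 5×Gal4-response-element firefly luciferase reporter, transiently transfected overnight with a CMV-driven Gal4 DNA-binding domain/human FXR ligand-binding domain fusion.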
(In general: A reporter such as luciferase makes a cellular process visible.)
With `O=C(O)c1ccc(N2CCC3(C=C(c4c(-c5ncccc5Cl)noc4C4CC4)C3)CC2)nc1` [Example 171, 6-(2-(3-(3-Chloropyridin-2-yl)-5-cyclopropylisoxazol-4-yl)-7-azaspiro[3.5]non-1-en-7-yl)nicotinic acid], it took 1.87 µM to reach a half-maximal effect (EC50).

Turning to `Cn1c(C(=O)O)cc2cc(N3CCC4(C=C(c5c(-c6ccccc6OC(F)(F)F)noc5C5CC5)C4)CC3)ncc21` [Example 172, 5-(2-(5-Cyclopropyl-3-(2-(trifluoromethoxy)phenyl)isoxazol-4-yl)-7-azaspiro[3.5]non-1-en-7-yl)-1-methyl-1H-pyrrolo[2,3-c]pyridine-2-carboxylic acid], the EC50 amounted to 2.37 µM.

Take `Cn1nc(N2CCC3(C=C(c4c(-c5ccccc5OC(F)(F)F)noc4C4CC4)C3)CC2)c2ncc(C(=O)O)cc21` [Example 173, 3-(2-(5-Cyclopropyl-3-(2-(trifluoromethoxy)phenyl)isoxazol-4-yl)-7-azaspiro[3.5]non-1-en-7-yl)-1-methyl-1H-pyrazolo[4,3-b]pyridine-6-carboxylic acid]: it took 2.79 µM to reach a half-maximal effect (EC50). This EC50 and that of the molecule before are within 1.5-fold of each other.

Take `Cn1nc(C(=O)O)c2cc(N3CCC4(C=C(c5c(-c6ccccc6OC(F)(F)F)noc5C5CC5)C4)CC3)ccc21` [Example 174, 5-(2-(5-Cyclopropyl-3-(2-(trifluoromethoxy)phenyl)isoxazol-4-yl)-7-azaspiro[3.5]non-1-en-7-yl)-1-methyl-1H-indazole-3-carboxylic acid]: the EC50 amounted to 0.236 µM.

For `Cn1nc(C#N)c2ccc(N3CCC4(C=C(c5c(-c6ccccc6OC(F)(F)F)noc5C5CC5)C4)CC3)cc21` [Example 175, 6-(2-(5-Cyclopropyl-3-(2-(trifluoromethoxy)phenyl)isoxazol-4-yl)-7-azaspiro[3.5]non-1-en-7-yl)-1-methyl-1H-indazole-3-carbonitrile], the EC50 was 3.24 µM. Consider `O=C(O)c1cnc2nc(N3CCC4(C=C(c5c(-c6c(Cl)cccc6Cl)noc5C5CC5)C4)CC3)sc2c1` [Example 177, 2-(2-(5-Cyclopropyl-3-(2,6-dichlorophenyl)isoxazol-4-yl)-7-azaspiro[3.5]non-1-en-7-yl)thiazolo[4,5-b]pyridine-6-carboxylic acid], for which the midpoint of the response, the EC50, lay at 0.121 µM.

`O=C(O)c1cnc2cc(N3CCC4(C=C(c5c(-c6ccccc6C(F)(F)F)noc5C5CC5)C4)CC3)ccc2n1` [Example 178, 6-(2-(5-Cyclopropyl-3-(2-(trifluoromethyl)phenyl)isoxazol-4-yl)-7-azaspiro[3.5]non-1-en-7-yl)quinoxaline-2-carboxylic acid] displayed an EC50 of 0.172 µM. As for `O=C(NS(=O)(=O)C1CC1)c1cc(F)c2nc(N3CCC4(C=C(c5c(-c6c(Cl)cccc6Cl)noc5C5CC5)C4)CC3)sc2c1` [Example 179, 2-(2-(5-Cyclopropyl-3-(2,6-dichlorophenyl)isoxazol-4-yl)-7-azaspiro[3.5]non-1-en-7-yl)-N-(cyclopropylsulfonyl)-4-fluorobenzo[d]thiazole-6-carboxamide], the EC50 was 0.013 µM. In turn, `CS(=O)(=O)NC(=O)c1cc(F)c2nc(N3CCC4(C=C(c5c(-c6c(Cl)cccc6Cl)noc5C5CC5)C4)CC3)sc2c1` [Example 180, 2-(2-(5-Cyclopropyl-3-(2,6-dichlorophenyl)isoxazol-4-yl)-7-azaspiro[3.5]non-1-en-7-yl)-4-fluoro-N-(methylsulfonyl)benzo[d]thiazole-6-carboxamide] showed an EC50 of 0.035 µM. The figure for `O=C(NS(=O)(=O)C1CC1)c1cc(F)c2nc(N3CCC4(C=C(c5c(-c6c(Cl)cncc6Cl)noc5C5CC5)C4)CC3)sc2c1` [Example 181, 2-(2-(5-Cyclopropyl-3-(3,5-dichloropyridin-4-yl)isoxazol-4-yl)-7-azaspiro[3.5]non-1-en-7-yl)-N-(cyclopropylsulfonyl)-4-fluorobenzo[d]thiazole-6-carboxamide] is 0.06 µM; for `CS(=O)(=O)NC(=O)c1cc(F)c2nc(N3CCC4(C=C(c5c(-c6c(Cl)cncc6Cl)noc5C5CC5)C4)CC3)sc2c1` [Example 182, 2-(2-(5-Cyclopropyl-3-(3,5-dichloropyridin-4-yl)isoxazol-4-yl)-7-azaspiro[3.5]non-1-en-7-yl)-4-fluoro-N-(methylsulfonyl)benzo[d]thiazole-6-carboxamide] it is 0.688 µM; for `O=C(NS(=O)(=O)C1CC1)c1cc(C(F)(F)F)c2cc(N3CCC4(C=C(c5c(-c6c(Cl)cncc6Cl)noc5C5CC5)C4)CC3)ccc2n1` [Example 183, 6-(2-(5-Cyclopropyl-3-(3,5-dichloropyridin-4-yl)isoxazol-4-yl)-7-azaspiro[3.5]non-1-en-7-yl)-N-(cyclopropylsulfonyl)-4-(trifluoromethyl)quinoline-2-carboxamide] it is 0.055 µM. The result for `CS(=O)(=O)NC(=O)c1cc(OC(F)F)c2cc(N3CCC4(C=C(c5c(-c6c(Cl)cncc6Cl)noc5C5CC5)C4)CC3)ccc2n1` [Example 185, 6-(2-(5-Cyclopropyl-3-(3,5-dichloropyridin-4-yl)isoxazol-4-yl)-7-azaspiro[3.5]non-1-en-7-yl)-4-(difluoromethoxy)-N-(methylsulfonyl)quinoline-2-carboxamide] reads 0.016 µM; that for `CS(=O)(=O)NC(=O)c1cc(OC(F)F)c2cc(N3CCC4(C=C(c5c(-c6ccccc6C(F)(F)F)noc5C5CC5)C4)CC3)ccc2n1` [Example 186, 6-(2-(5-Cyclopropyl-3-(2-(trifluoromethyl)phenyl)isoxazol-4-yl)-7-azaspiro[3.5]non-1-en-7-yl)-4-(difluoromethoxy)-N-(methylsulfonyl)quinoline-2-carboxamide], 0.013 µM; that for `CS(=O)(=O)NC(=O)c1cc(OC(F)F)c2cc(N3CCC4(C=C(c5c(-c6cnccc6C(F)(F)F)noc5C5CC5)C4)CC3)ccc2n1` [Example 187, 6-(2-(5-Cyclopropyl-3-(4-(trifluoromethyl)pyridin-3-yl)isoxazol-4-yl)-7-azaspiro[3.5]non-1-en-7-yl)-4-(difluoromethoxy)-N-(methylsulfonyl)quinoline-2-carboxamide], 0.063 µM.

Consider `O=C(NS(=O)(=O)C1CC1)c1cc(OC(F)F)c2cc(N3CCC4(C=C(c5c(-c6cnccc6C(F)(F)F)noc5C5CC5)C4)CC3)ccc2n1` [Example 188, 6-(2-(5-Cyclopropyl-3-(4-(trifluoromethyl)pyridin-3-yl)isoxazol-4-yl)-7-azaspiro[3.5]non-1-en-7-yl)-N-(cyclopropylsulfonyl)-4-(difluoromethoxy)quinoline-2-carboxamide], for which the EC50 was 0.043 µM. The result for `O=C(NS(=O)(=O)C1CC1)c1cc(OC(F)F)c2cc(N3CCC4(C=C(c5c(-c6ncccc6Cl)noc5C5CC5)C4)CC3)ccc2n1` [Example 189, 6-(2-(3-(3-Chloropyridin-2-yl)-5-cyclopropylisoxazol-4-yl)-7-azaspiro[3.5]non-1-en-7-yl)-N-(cyclopropylsulfonyl)-4-(difluoromethoxy)quinoline-2-carboxamide] reads 0.048 µM; that for `CS(=O)(=O)NC(=O)c1cc(OC(F)F)c2cc(N3CCC4(C=C(c5c(-c6ncccc6Cl)noc5C5CC5)C4)CC3)ccc2n1` [Example 190, 6-(2-(3-(3-Chloropyridin-2-yl)-5-cyclopropylisoxazol-4-yl)-7-azaspiro[3.5]non-1-en-7-yl)-4-(difluoromethoxy)-N-(methylsulfonyl)quinoline-2-carboxamide], 0.168 µM.

In general, EC50 refers to the concentration needed to bring the measured effect to its halfway point. A low value points to greater potency.
